Measured values from patent US7138108B2, “Photoprotective UV-screening compositions comprising (phenylsulfonyl) acrylonitrile-substituted silanes/siloxanes” (L'Oreal, priority 2002, dated 2006).

Test: UV absorption spectrum in ethanol (UV-A screening power)
Assay type: physicochemical
Conditions: UV (EtOH); for E1% / εmax: at λmax

C=C(C)COc1ccc(C=C(C#N)S(=O)(=O)c2ccccc2)cc1 [2-benzenesulfonyl-3-[4-(2-methylallyloxy)phenyl]acrylonitrile]
λmax: 345 nm
E1%: 736

C[Si](C)(C)CCCOc1ccc(/C=C(\C#N)S(=O)(=O)c2ccccc2)cc1 [Example 1, 2-benzenesulfonyl-3-[4-(3-trimethylsilanylpropoxy)phenyl]acrylonitrile]
λmax: 347 nm
E1%: 813
εmax: 32 500

CC(COc1ccc(/C=C(\C#N)S(=O)(=O)c2ccccc2)cc1)C[Si](C)(O[Si](C)(C)C)O[Si](C)(C)C (centres unmarked) [Example 2, [4-[2-methyl-3-[1,3,3,3-tetramethyl-1-[(trimethylsilyl)oxy]disiloxanyl]propyloxy]phenyl]-2-(benzenesulfonyl)acrylonitrile]
λmax: 348 nm
E1%: 632
εmax: 35 500
